In patent publication US10030020B2, “Spirocycle compounds and methods of making and using same” (Abide Therapeutics, Inc., priority 2016, dated 2018):
pIC50: −log10 of the molar value. Where two headings read alike, the source gives them in different places.

Assays:
FAAH [1] = biological target: T1, FAAH (Mus musculus (Mouse), UniProt O08914); experiment: Mouse brain proteomes from inhibitor treated mice (oral gavage, sacrificed 4 h after administration, ABPP analysis), FAAH; format: in vivo, mouse (C57Bl/6J); settings: 5 mg/kg oral gavage
Protocol: (§1) Preparation of Mouse Brain Proteomes from Inhibitor Treated Mice.
(§2) Inhibitors were administered to wild-type C57Bl/6J by oral gavage in a vehicle, e.g. PEG400/Ethanol/PBS (7/2/1). Each animal was sacrificed 4 h following administration and brain proteomes were prepared and analyzed according to previously established methods (See Niphakis, M. J., et al. (2011) ACS Chem. Neurosci. and Long, J. Z., et al. Nat. Chem. Biol. 5:37-44). Data from this assay is shown in Table 2 (% inhibition at 5 mg/kg).

ABHD6 [2] = biological target: T2, ABHD6 (Mus musculus (Mouse), UniProt Q8R2Y0); experiment: In vitro competitive activity-based protein profiling (mouse brain membrane fraction or cell lysates), ABHD6 band; format: biochemical; settings: for inhibition at 1 µM: read-out: ABHD6 % Inh 1 μM (mouse); for pIC50: competitive ABPP
Summary of the method: (§3)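 Residual hydrolase activity was measured as gel band fluorescence after FP-Rh labelling (30 min, 37° C) of proteomes pretreated 30 min at 37° C with inhibitor.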

MAGL [3] = biological target: T3, MAGL (Mus musculus (Mouse), UniProt O35678); experiment: In vitro competitive activity-based protein profiling (mouse brain membrane fraction or cell lysates), MAGL band; format: biochemical; settings: for inhibition at 1 µM: read-out: MAGL % Inh 1 μM (mouse); for pIC50: competitive ABPP
Protocol: In Vitro Competitive Activity-Based Protein Profiling.
Proteomes (mouse brain membrane fraction or cell lysates) (50 μL, 1.0 mg/mL total protein concentration) were preincubated with varying concentrations of inhibitors at 37° C. After 30 min, FP—Rh (1.0 μL, 50 μM in DMSO) was added and the mixture was incubated for another 30 min at 37° C. Reactions were quenched with SDS loading buffer (50 μL-4×) and run on SDS-PAGE.

ABHD6 [4] = biological target: T2, ABHD6; experiment: Mouse brain proteomes from inhibitor treated mice (oral gavage, sacrificed 4 h after administration, ABPP analysis), ABHD6; format: in vivo, mouse (C57Bl/6J); settings: 5 mg/kg oral gavage
Protocol: as §1, §2

FAAH [5] = biological target: T1, FAAH; experiment: In vitro competitive activity-based protein profiling (mouse brain membrane fraction or cell lysates), FAAH band; format: biochemical; settings: for inhibition at 1 µM: read-out: FAAH % Inh 1 μM (mouse); for pIC50: competitive ABPP
Summary of the method: as §3

MAGL [6] = biological target: T3, MAGL; experiment: Mouse brain proteomes from inhibitor treated mice (oral gavage, sacrificed 4 h after administration, ABPP analysis); format: in vivo, mouse (C57Bl/6J); settings: 5 mg/kg oral gavage
Protocol: as §1, §2

T1 sequence (O08914 whole entry): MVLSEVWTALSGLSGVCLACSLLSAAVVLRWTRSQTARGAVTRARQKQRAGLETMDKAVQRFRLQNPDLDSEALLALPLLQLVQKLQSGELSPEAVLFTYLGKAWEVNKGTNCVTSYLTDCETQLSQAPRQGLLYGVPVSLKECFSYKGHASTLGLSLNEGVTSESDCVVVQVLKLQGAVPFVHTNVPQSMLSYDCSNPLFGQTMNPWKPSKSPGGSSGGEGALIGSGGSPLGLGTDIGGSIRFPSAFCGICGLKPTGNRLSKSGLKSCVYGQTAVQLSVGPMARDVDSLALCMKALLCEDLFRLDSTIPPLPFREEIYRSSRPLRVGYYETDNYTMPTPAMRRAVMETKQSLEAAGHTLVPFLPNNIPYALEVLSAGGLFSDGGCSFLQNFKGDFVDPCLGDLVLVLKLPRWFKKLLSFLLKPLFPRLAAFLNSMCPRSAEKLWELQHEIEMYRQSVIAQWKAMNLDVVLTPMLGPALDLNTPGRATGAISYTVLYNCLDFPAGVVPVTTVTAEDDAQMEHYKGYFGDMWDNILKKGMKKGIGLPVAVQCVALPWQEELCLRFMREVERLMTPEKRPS
T2 sequence (Q8R2Y0 whole entry): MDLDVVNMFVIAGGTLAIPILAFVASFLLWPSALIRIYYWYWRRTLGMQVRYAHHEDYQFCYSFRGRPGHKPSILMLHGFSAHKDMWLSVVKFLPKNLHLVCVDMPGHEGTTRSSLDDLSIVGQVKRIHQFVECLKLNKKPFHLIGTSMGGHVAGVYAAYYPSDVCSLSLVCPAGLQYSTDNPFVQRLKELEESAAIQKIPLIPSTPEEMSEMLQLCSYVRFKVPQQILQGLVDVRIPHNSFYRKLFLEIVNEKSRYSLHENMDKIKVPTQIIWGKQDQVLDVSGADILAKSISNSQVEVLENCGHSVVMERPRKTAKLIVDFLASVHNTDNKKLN
T3 sequence (O35678 whole entry): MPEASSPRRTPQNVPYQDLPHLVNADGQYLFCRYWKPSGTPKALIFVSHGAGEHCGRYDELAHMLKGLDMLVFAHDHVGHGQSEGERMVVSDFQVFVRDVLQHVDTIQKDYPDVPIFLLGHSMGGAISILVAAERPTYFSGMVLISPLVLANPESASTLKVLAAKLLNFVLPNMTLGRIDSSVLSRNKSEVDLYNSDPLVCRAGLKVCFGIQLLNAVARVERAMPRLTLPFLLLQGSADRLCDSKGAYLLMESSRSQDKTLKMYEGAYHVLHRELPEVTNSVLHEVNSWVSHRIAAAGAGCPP

| SMILES | FAAH % Inh 5 mg/kg (mouse) (FAAH [1]) | inhibition at 1 µM (ABHD6 [2]; mouse proteome) | pIC50 (ABHD6 [2]; mouse proteome) | inhibition at 1 µM (MAGL [3]; mouse proteome) | pIC50 (MAGL [3]; mouse proteome) | ABHD6 % Inh 5 mg/kg (mouse) (ABHD6 [4]) | inhibition at 1 µM (FAAH [5]; mouse proteome) | pIC50 (FAAH [5]; mouse proteome) | MAGL % Inh 5 mg/kg (mouse) (MAGL [6]) | inhibition at 1 µM (ABHD6 [2]; mouse) | inhibition at 1 µM (MAGL [3]; mouse) | inhibition at 1 µM (FAAH [5]; mouse) |
| --- | --- | --- | --- | --- | --- | --- | --- | --- | --- | --- | --- | --- |
| CCOc1ccc(CN2CCCC23CCN(C(=O)OC(C(F)(F)F)C(F)(F)F)CC3)cc1 [Example 4, 1,1,1,3,3,3-Hexafluoropropan-2-yl 1-(4-ethoxybenzyl)-1,8-diazaspiro[4.5]decane-8-carboxylate] | # (# is <25%) | < 25% | < 6.00 | > 75% | 6.00 to 7.00 | # (# is <25%) | < 25% | < 6.00 | ### (### is ≥75%) |  |  |  |
| CCOc1cccc(CN2CCCC23CCN(C(=O)OC(C(F)(F)F)C(F)(F)F)CC3)c1 [Example 5, 1,1,1,3,3,3-Hexafluoropropan-2-yl 1-(3-ethoxybenzyl)-1,8-diazaspiro[4.5]decane-8-carboxylate] | # (# is <25%) | < 25% | < 6.00 | > 75% | > 7.00 | ## (## is equal to or greater than 25% but less than 75%) | < 25% | < 6.00 | ### (### is ≥75%) |  |  |  |
| COc1cccc(CN2CCCC23CCN(C(=O)OC(C(F)(F)F)C(F)(F)F)CC3)c1Cl [Example 7, 1,1,1,3,3,3-Hexafluoropropan-2-yl 1-(2-chloro-3-methoxybenzyl)-1,8-diazaspiro[4.5]decane-8-carboxylate] | ### (### is ≥75%) |  | < 6.00 |  | > 7.00 | # (# is <25%) |  | < 6.00 | ### (### is ≥75%) |  |  |  |
| COc1ccc(F)cc1CN1CCCC12CCN(C(=O)OC(C(F)(F)F)C(F)(F)F)CC2 [Example 8, 1,1,1,3,3,3-Hexafluoropropan-2-yl 1-(5-fluoro-2-methoxybenzyl)-1,8-diazaspiro[4.5]decane-8-carboxylate] | ## (## is equal to or greater than 25% but less than 75%) |  | < 6.00 |  | > 7.00 | ## (## is equal to or greater than 25% but less than 75%) |  | < 6.00 | ### (### is ≥75%) |  |  |  |
| CC1(C)CC2(CCN(C(=O)OC(C(F)(F)F)C(F)(F)F)CC2)CN1Cc1cc(N2CCOCC2)cc(C(F)(F)F)c1 [Example 188, 1,1,1,3,3,3-Hexafluoropropan-2-yl 3,3-dimethyl-2-(3-morpholino-5-(trifluoromethyl)benzyl)-2,8-diazaspiro[4.5]decane-8-carboxylate] |  | 25 to 75% | 6.00 to 7.00 | > 75% | 6.00 to 7.00 |  | < 25% | < 6.00 |  |  |  |  |
| CC1(C)CC2(CCN(C(=O)OC(C(F)(F)F)C(F)(F)F)CC2)CN1Cc1cccc(OC(F)(F)F)c1N1CCOCC1 [Example 190, 1,1,1,3,3,3-Hexafluoropropan-2-yl 3,3-dimethyl-2-(2-morpholino-3-(trifluoromethoxy)benzyl)-2,8-diazaspiro[4.5]decane-8-carboxylate] |  | < 25% | < 6.00 | > 75% | > 7.00 |  | < 25% | < 6.00 |  |  |  |  |
| CC1(C)CC2(CCN(C(=O)OC(C(F)(F)F)C(F)(F)F)CC2)CN1Cc1cccc(CN2CCOCC2)c1F [Example 191, 1,1,1,3,3,3-Hexafluoropropan-2-yl 2-(2-fluoro-3-(morpholinomethyl)benzyl)-3,3-dimethyl-2,8-diazaspiro[4.5]decane-8-carboxylate] |  | 25 to 75% | < 6.00 | > 75% | 6.00 to 7.00 |  | < 25% | < 6.00 |  |  |  |  |
| CC1(C)CC2(CCN(C(=O)OC(C(F)(F)F)C(F)(F)F)CC2)CN1Cc1cc(CN2CCOCC2)ccc1OC(F)(F)F [Example 192, 1,1,1,3,3,3-Hexafluoropropan-2-yl 3,3-dimethyl-2-(5-(morpholinomethyl)-2-(trifluoromethoxy)benzyl)-2,8-diazaspiro[4.5]decane-8-carboxylate] |  | 25 to 75% | 6.00 to 7.00 | > 75% | > 7.00 |  | < 25% | < 6.00 |  |  |  |  |
| O=C(O)C1CCN(c2cc(CN3CCCC34CCN(C(=O)OC(C(F)(F)F)C(F)(F)F)CC4)cc(OC(F)(F)F)c2)CC1 [Example 207] |  | < 25% |  | > 75% |  |  | < 25% |  |  |  |  |  |
| O=C(O)[C@@H]1CCCN(c2cc(CN3CCC4(CCN(C(=O)OC(C(F)(F)F)C(F)(F)F)CC4)C3)cc(C(F)(F)F)c2)C1 [Example 208] |  | ≥ 75% |  | > 75% |  |  | < 25% |  |  |  |  |  |
| O=C(O)[C@@H]1CCCN(c2cc(CN3CCCC34CCN(C(=O)OC(C(F)(F)F)C(F)(F)F)CC4)cc(C(F)(F)F)c2)C1 [Example 212] |  | < 25% |  | > 75% |  |  | < 25% |  |  |  |  |  |
| O=C(O)[C@H]1CCCN(c2cc(CN3CCCC34CCN(C(=O)OC(C(F)(F)F)C(F)(F)F)CC4)cc(C(F)(F)F)c2)C1 [Example 213] |  | < 25% |  | > 75% |  |  | < 25% |  |  |  |  |  |
| O=C(O)C1COCCN1c1cc(C(F)(F)F)ccc1CN1CCC2(CCN(C(=O)OC(C(F)(F)F)C(F)(F)F)CC2)C1 (stereo not drawn) [Example 220] |  | < 25% |  | 25 to 75% |  |  | < 25% |  |  |  |  |  |
| O=C(O)C1CCCCN1c1cc(C(F)(F)F)ccc1CN1CCC2(CCN(C(=O)OC(C(F)(F)F)C(F)(F)F)CC2)C1 (stereo not drawn) [Example 224] |  |  |  |  |  |  |  |  |  | < 25% | 25 to 75% | < 25% |
| O=C(O)c1cccc(CN2CCCC23CCN(C(=O)OC(C(F)(F)F)C(F)(F)F)CC3)c1 [Example 242] |  |  |  |  |  |  |  |  |  | 25 to 75% | 25 to 75% | < 25% |
| O=C(O)c1ccc(CN2CCCC23CCN(C(=O)OC(C(F)(F)F)C(F)(F)F)CC3)cc1 [Example 250] |  |  |  |  |  |  |  |  |  | < 25% | > 75% | < 25% |
| O=C(O)c1ccccc1CN1CCCC12CCN(C(=O)OC(C(F)(F)F)C(F)(F)F)CC2 [Example 251] |  |  |  |  |  |  |  |  |  | < 25% | 25 to 75% | < 25% |
| COc1ccc(CN2CCCC23CCN(C(=O)OC(C(F)(F)F)C(F)(F)F)CC3)cc1C(=O)O [Example 254] |  |  |  |  |  |  |  |  |  | < 25% | 25 to 75% | < 25% |
| Cc1ccc(CN2CCCC23CCN(C(=O)OC(C(F)(F)F)C(F)(F)F)CC3)cc1C(=O)O [Example 257] |  |  |  |  |  |  |  |  |  | < 25% | < 25% | < 25% |
| O=C(O)C1CCCCN1c1cc(C(F)(F)F)ccc1CN1CCCC12CCN(C(=O)OC(C(F)(F)F)C(F)(F)F)CC2 (stereo not drawn) [Example 259] |  |  |  |  |  |  |  |  |  | < 25% | < 25% | < 25% |
| NC(=O)C1CCN(c2cc(C(F)(F)F)ccc2CN2CCCC23CCN(C(=O)OC(C(F)(F)F)C(F)(F)F)CC3)CC1 [Example 273] |  |  |  |  |  |  |  |  |  | 25 to 75% | > 75% | < 25% |
